Consider eleven molecules from ChEMBL document CHEMBL1140123, “Whole structure-activity relationships of the fat-accumulation inhibitor (-)-ternatin: recognition of the importance of each amino acid residue” (J Med Chem, 2008).

Usually IC50 stands for the concentration that inhibits the measured activity by half.

Series [1] in a line: Toxicity in mouse 3T3L1 cells. Type of series: cell-based. Conditions: 3T3-L1 cells.
In series [2] the test system is 3T3-L1. The experiment in a line: Inhibition of fat accumulation in mouse 3T3L1 cells assessed as liberated triglyceride after 7 days. Type of series: functional, cell-based. The note with it: 3T3-L1, 168 h.
In series [3] the test system is 3T3-L1. The series can be described thus: Inhibition of fat accumulation in mouse 3T3L1 cells assessed as liberated triglyceride after 7 days relative to (-)-ternatin. In kind it is functional.

As to `CCCCCC[C@@H]1C(=O)N[C@H]([C@H](O)C(C)C)C(=O)N[C@H]([C@@H](C)CC)C(=O)N(C)[C@@H](C)C(=O)N(C)[C@@H](CC(C)C)C(=O)N[C@@H](CC(C)C)C(=O)N(C)[C@@H](C)C(=O)N1C`, the IC50 in series [1] came to 0.066 µM; in the series with 3T3-L1 [2] it was 0.016 µM.
For `CC[C@H](C)[C@H]1NC(=O)[C@@H](COCc2ccccc2)NC(=O)[C@H](C)N(C)C(=O)[C@H](C)N(C)C(=O)[C@H](CC(C)C)NC(=O)[C@H](CC(C)C)N(C)C(=O)[C@H](C)N(C)C1=O`, the figures for the IC50 (in series [1]; in the series on 3T3-L1 [2]) were 89 µM and 5.9 µM, respectively.
In the same order, the values of `CC[C@H](C)[C@H]1NC(=O)[C@@H](C)NC(=O)[C@@H](C)N(C)C(=O)[C@H](C)N(C)C(=O)[C@H](CC(C)C)NC(=O)[C@H](CC(C)C)N(C)C(=O)[C@H](C)N(C)C1=O` are above 130 µM and 14 µM.
As to `CC[C@H](C)[C@H]1NC(=O)[C@@H]([C@H](O)C(C)C)NC(=O)[C@@H](C)N(C)C(=O)[C@H](C)N(C)C(=O)[C@H](C)NC(=O)[C@H](CC(C)C)N(C)C(=O)[C@H](C)N(C)C1=O`, the IC50 (in series [1]; in the series on 3T3-L1 [2]) was above 130 µM in each case. In addition, the Activity with 3T3-L1 [3] is 0.002.
Regarding `CCCCCC[C@H]1NC(=O)[C@@H]([C@H](O)C(C)C)NC(=O)[C@@H](C)N(C)C(=O)[C@H](C)N(C)C(=O)[C@H](CC(C)C)NC(=O)[C@H](CC(C)C)N(C)C(=O)[C@H](C)N(C)C1=O`, the IC50 is above 130 µM in series [1] and 46 µM in the series on 3T3-L1 [2].
In the same order, the values of `CCCCCC[C@H]1C(=O)N(C)[C@@H](CC(C)C)C(=O)N[C@@H](CC(C)C)C(=O)N(C)[C@@H](C)C(=O)N(C)[C@H](C)C(=O)N[C@H]([C@H](O)C(C)C)C(=O)N[C@H]([C@@H](C)CC)C(=O)N1C` are above 12 µM and 1.1 µM.
In the same order, the values of `CCCCCC[C@H]1C(=O)N(C)[C@H](C)C(=O)N[C@H]([C@H](O)C(C)C)C(=O)N[C@H]([C@@H](C)CC)C(=O)N(C)[C@@H](C)C(=O)N(C)[C@@H](CC(C)C)C(=O)N[C@@H](CC(C)C)C(=O)N1C` are 0.96 µM and 0.12 µM.
As to `CCCCCC[C@@H]1NC(=O)[C@H](CC(C)C)N(C)C(=O)[C@H](C)N(C)C(=O)[C@@H]([C@@H](C)CC)NC(=O)[C@@H]([C@H](O)C(C)C)NC(=O)[C@@H](C)N(C)C(=O)[C@H](C)N(C)C1=O`, the half-inhibitory concentration (IC50) (in series [1]; with 3T3-L1 [2]) was above 130 µM each time. Moreover, the Activity in the series on 3T3-L1 [3] is 0.002.
On to `CCCCCC[C@H]1C(=O)N[C@@H](CC(C)C)C(=O)N(C)[C@@H](C)C(=O)N(C)[C@H](C)C(=O)N[C@H]([C@H](O)C(C)C)C(=O)N[C@H]([C@@H](C)CC)C(=O)N(C)[C@@H](C)C(=O)N1C`, for which the values for the IC50 (in series [1]; in the series on 3T3-L1 [2]) were 2.1 µM and 0.38 µM, respectively.
The like results for `CC[C@H](C)[C@H]1NC(=O)[C@@H]([C@H](O)C(C)C)NC(=O)[C@@H](C)N(C)C(=O)[C@H](C)N(C)C(=O)[C@H](CC(C)C)NC(=O)[C@H](C)N(C)C(=O)[C@H](C)N(C)C1=O` were, in that order, above 29 µM and 1.6 µM.
For the molecule `CC(C)C[C@@H]1NC(=O)[C@H](CC(C)C)N(C)C(=O)[C@H](C)N(C)C(=O)[C@@H](C)NC(=O)[C@@H]([C@H](O)C(C)C)NC(=O)[C@@H](C)N(C)C(=O)[C@H](C)N(C)C1=O`, the half-inhibitory concentration (IC50) (in series [1]; in the series on 3T3-L1 [2]) was above 130 µM throughout. For the same molecule, the Activity with 3T3-L1 [3] was found to be 0.002.
